What was measured:
[1] = system: γ-aminobutyric acid transaminase (GABA-T); details: background, U.S. Pat. No. 3,960,927 and literature; cited from earlier work
[2] = system: level of γ-aminobutyric acid (GABA) in the CNS; details: background; cited from earlier work
[3] = system: GABA-T enzyme; test: Biological activity of 4-amino-5-hexenoic acid enantiomers; details: GABA-T inhibition
[4] = system: GABA-T; details: reported by Lippert et al. and Bouclier et al.; cited from earlier work
[5] = system: GABA-T; test: GABA-T activity in mice brain, test method of Jung et al., J. Neurochemistry; format: in vivo; details: 4 hours after injection
Excerpt: (§1) The biochemical and pharmacological effects of 4-aminohex-5-ynoic acid are described in Jung et al., Biochem. and Biophys. Res. Comm., 67, 301 (1975); Jung et al., J. Neurochemistry, 28, 717 (1977); Jung et al., Biochemistry, 17, 2628 (1978); Bouclier et al., Eur. J. Biochem., 98, 363 (1979); Biochem. Pharmacology, 28, 1705 (1979); and Lippert et al., Brain Research Bull., 5, 375 (1980). […] For example, (R)-4-aminohex-5-ynoic acid gave the follow effects on GABA-T activity and GABA concentrations in mice brain using the test method of Jung et al., J. Neurochemistry, supra:
(§2) ^(a) 4 hours after injection of the test compound, i.p.

[6] = system: GABA concentrations in mice brain; test: GABA concentrations in mice brain, test method of Jung et al., J. Neurochemistry; format: in vivo; details: 4 hours after injection
Excerpt: as §1, §2

[7] = system: GABA-T; test: Chronic oral experiment in rats: GABA-T activity in homogenates of brain minus the cortex; format: in vivo; details: oral daily 100 mg/kg, 24 hours after last dose
Method: (§3) In a chronic experiment, a group of five rats was given oral daily doses of 100 mg/kg of (R)-4-aminohex-5-ynoic acid. A separate group of animals was used as control. Twenty-four hours after the last dose, the animals were sacrificed and the cortex was dissected from the rest of the brain.

[8] = system: GABA concentration in homogenates of the cortex; test: Chronic oral experiment in rats: GABA concentration in homogenates of the cortex; format: in vivo; details: oral daily 100 mg/kg, 24 hours after last dose, vs controls
Method: as §3

[9] = set-up: species or system rats; details: rat, in vivo, po, 100 mg/kg
[10] = system: convulsions and death, induced by mercaptopropionic acid; test: Protection of mice against effects induced by mercaptopropionic acid; format: in vivo; details: mercaptopropionic acid 53 mg/kg i.p. 6 hours after
[11] = set-up: species or system mice; details: mouse, in vivo, ip, 400 mg/kg
[12] = system: GABA-T; test: Irreversible inhibition of GABA-T in vitro; format: biochemical
[13] = system: GABA-T; test: Irreversible inhibition of GABA-T in vivo

For `C=CC(N)CCC(=O)O` (stereo not drawn) [4-Amino-5-hexenoic acid], the “irreversible inhibition of GABA-T” value [1] is given as “irreversible inhibitor” and the “increase of GABA level in the CNS” value [2] is given as “capable of increasing the level of γ-aminobutyric acid (GABA) in the CNS”.
With `C=C[C@H](N)CCC(=O)O` [(R)-4-amino-5-hexenoic acid] the “biological activity of the enantiomer” value [3] was “biologically inactive”.
For `C#C[C@@H](N)CCC(=O)O` [(S)-4-aminohex-5-ynoic acid], the “irreversible inhibition of GABA-T (reported as only active enantiomer)” value [4] is given as “irreversibly inhibit GABA-T”.
In the case of `C=C[C@@H](N)CCC(=O)O` [(S)-4-amino-5-hexenoic acid, (S)-4-Amino-5-hexenoic acid], the “biological activity of the enantiomer” value [3] is reported as “biologically active”.
With `C#C[C@H](N)CCC(=O)O` [(R)-4-aminohex-5-ynoic acid, (R)-4-Aminohex-5-ynoic acid] the “% Inhibition of GABA-T” value ([5]; 25 mg/kg i.p.) was 31%, the “% Inhibition of GABA-T” value ([5]; 50 mg/kg i.p.) was 50% and the “% Inhibition of GABA-T” value ([5]; 100 mg/kg i.p.) was 66%. For the same compound, the “% Inhibition of GABA-T” value ([5]; 200 mg/kg i.p.) was 81%, the “GABA Concentration % Control” value ([6]; 25 mg/kg i.p.) was 103 % Control and the “GABA Concentration % Control” value ([6]; 50 mg/kg i.p.) was 125 % Control. The “GABA Concentration % Control” value ([6]; 100 mg/kg i.p.) was 180 % Control, the “GABA Concentration % Control” value ([6]; 200 mg/kg i.p.) was 275 % Control and the “GABA-T activity decrease as compared to controls” value [7] was 81%. The “GABA concentration in homogenates of the cortex” value [8] was “approximately doubled”, the body weight effect [9] was “lost body weight” and the “course of body weight and hair loss effects” value [9] was “appeared to disappear during the second week”. The hair loss [9] was “lost hair on their backs”, the “protection against convulsions and death induced by mercaptopropionic acid” value ([10]; 100 mg/kg i.p.) was “protect mice against convulsions and death” and the “protection against running fits” value ([10]; 100 mg/kg i.p.) was “no protection against running fits”. The “protection against convulsions and death induced by mercaptopropionic acid” value ([10]; 200 mg/kg i.p.) was “protect mice against convulsions and death”, the “protection against running fits” value ([10]; 200 mg/kg i.p.) was “no protection against running fits” and the death [11] was “dead”. The sedation [11] was “produced sedation”, the time to sedation [11] was at most 30 min and the “irreversible inhibition of GABA-T” value [12] was “irreversible inhibitor of GABA-T”. For the same compound, the “irreversible inhibition of GABA-T” value [13] was “irreversible inhibitor of GABA-T”.

Source: patent publication US4621145A, “Process for preparing 5-vinyl-2-pyrrolidinone and intermediates therefor” (Merrell Dow Pharmaceuticals Inc., priority 1982, dated 1986)
